From patent US4536335A, “Carbapenem antibiotics” (Bristol-Myers Company, priority 1983, dated 1985)
≈ marks a conversion by molar mass, not a printed value. Read-outs that look alike come from different tables or passages of the source.

Experiments:
[1] = tested on: P. aeruginosa A-9843a; assay: Protective effect in the intramuscular treatment of infected mice (PD50); format: in vivo; settings: Pseudomonas aeruginosa, A9843A, im; mice, challenge 3 × 10^6 organisms, treated i.m. 0 and 2 hours post-infection; read-out: PD50/Treatment, P. aeruginosa A-9843a
Protocol: The PD50 (dose in mg/kg required to give protection to 50% of the infected mice) is indicated.
(§1) Treatment Schedule: Mice were treated i.m. with drugs 0 and 2 hours post-infection; 5 mice per dose were used for each test
*For compound of Ex. 2, mice were infected i.p. with 2 × 10^9
compounds of Ex. 4 and 5, mice were infected i.p. with ~9 ×
were treated i.m. with drugs 0 and 2 h postinfection.

[2] = tested on: E. coli A15119; assay: In vitro MIC, tube dilution; format: cell-based; settings: Escherichia coli, A15119, tube dilution, Nutrient Broth, overnight incubation at 37° C.
[3] = tested on: P. aeruginosa A21213; assay: In vitro MIC, tube dilution; format: cell-based; settings: Pseudomonas aeruginosa, A21213, tube dilution, Nutrient Broth, overnight incubation at 37° C.
[4] = tested on: E. coli A20341-1; assay: In vitro MIC, tube dilution; format: cell-based; settings: Escherichia coli, A203411, tube dilution, Nutrient Broth, overnight incubation at 37° C.
[5] = tested on: P. aeruginosa A-9843A; assay: In vitro MIC, tube dilution; format: cell-based; settings: Pseudomonas aeruginosa, A9843A, Nutrient Broth, overnight incubation at 37° C.
[6] = tested on: S. pyogenes A-9604; assay: In vitro MIC, tube dilution; format: cell-based; settings: Streptococcus pyogenes, A9604, tube dilution, Nutrient Broth, overnight incubation at 37° C.
[7] = tested on: E. cloacae A-9569; assay: In vitro MIC, tube dilution; format: cell-based; settings: Enterobacter cloacae, A9569, Nutrient Broth, overnight incubation at 37° C.
Text: (§2) N-Formimidoyl thienamycin was included as a comparison compound.

[8] = tested on: B. fragilis A22696; assay: In vitro MIC, tube dilution; format: cell-based; settings: Bacteroides fragilis, Nutrient Broth, overnight incubation at 37° C.
Text: as §2

[9] = tested on: B. fragilis A22863; assay: In vitro MIC, tube dilution; format: cell-based; settings: Bacteroides fragilis, Nutrient Broth, overnight incubation at 37° C.
Text: as §2

[10] = tested on: B. fragilis A22862; assay: In vitro MIC, tube dilution; format: cell-based; settings: Bacteroides fragilis, Nutrient Broth, overnight incubation at 37° C.
Text: as §2

[11] = tested on: B. fragilis A22053; assay: In vitro MIC, tube dilution; format: cell-based; settings: Bacteroides fragilis, Nutrient Broth, overnight incubation at 37° C.
Text: as §2

[12] = tested on: P. mirabilis A-9900; assay: In vitro MIC, tube dilution; format: cell-based; settings: Proteus mirabilis, A9900, tube dilution, Nutrient Broth, overnight incubation at 37° C.
[13] = Toxicity after intracranial administration to mice; settings: mouse, in vivo
Text: | *Average of 25/mice/compound

[14] = tested on: E. cloacae A-9656; assay: In vitro MIC, tube dilution; format: cell-based; settings: Enterobacter cloacae, A9656; tube dilution, Nutrient Broth, overnight incubation at 37° C.
[15] = tested on: P. mirabilis A-9900; assay: Protective effect in the intramuscular treatment of infected mice (PD50); format: in vivo; settings: Proteus mirabilis, A9900, im, read-out: PD50/Treatment, P. mirabilis A-9900
Protocol: as §1

[16] = Urinary recovery after intramuscular administration to mice; format: in vivo; settings: mouse, urine, im, 20 mg/kg, mice, i.m. 20 mg/kg
Protocol: Compounds were solubilized in 0.1 M phosphate buffer pH 7. Values are from a single test; 4 mice per compound.
(§3) Also shown is the urinary recovery in the mice.
***Recovery based on 0-6 hour collection

[17] = tested on: P. morganii A15153; assay: In vitro MIC, tube dilution; format: cell-based; settings: Morganella morganii, A15153, tube dilution, Nutrient Broth, overnight incubation at 37° C.; read-out: MIC P. morganii A15153
[18] = Blood levels in mice after intramuscular administration; format: in vivo; settings: mouse, blood, im, mice, i.m. 20 mg/kg
Text: Compounds were solubilized in 0.1 M phosphate buffer pH 7. Values are fro
a single test; 4 mice used per compound.
*t1/2 refers to halflife in minutes
**AUC refers to the area under the blood concentrationtime curve
as §3
Compounds were solubilized in 0.1 M phosphate buffer, pH 7.
Values based on a single test; 4 mice per compound.
*T1/2 refers to halflife in minutes

[19] = tested on: S. pneumoniae A-9585; assay: In vitro MIC, tube dilution; format: cell-based; settings: Streptococcus pneumoniae, A9585, Nutrient Broth, overnight incubation at 37° C.
[20] = tested on: S. aureus A-9606 (Pen-res.); assay: In vitro MIC, tube dilution; format: cell-based; settings: Staphylococcus aureus, Nutrient Broth, overnight incubation at 37° C., read-out: MIC S. aureus A-9606 (Pen-res.)
[21] = tested on: S. faecalis A20688; assay: In vitro MIC, tube dilution; format: cell-based; settings: Enterococcus faecalis, A20688, tube dilution, Nutrient Broth, overnight incubation at 37° C.
[22] = tested on: S. marcescens A20019; assay: In vitro MIC, tube dilution; format: cell-based; settings: Serratia marcescens, A20019; tube dilution, Nutrient Broth, overnight incubation at 37° C.
[23] = tested on: P. rettgeri A22424; assay: In vitro MIC, tube dilution; format: cell-based; settings: Providencia rettgeri, A22424, tube dilution, Nutrient Broth, overnight incubation at 37° C.
[24] = tested on: K. pneumoniae A20468; assay: In vitro MIC, tube dilution; format: cell-based; settings: Klebsiella pneumoniae, A20468, tube dilution, Nutrient Broth, overnight incubation at 37° C.
[25] = tested on: K. pneumoniae A-9664; assay: In vitro MIC, tube dilution; format: cell-based; settings: Klebsiella pneumoniae, A9664, tube dilution, Nutrient Broth, overnight incubation at 37° C.
[26] = tested on: P. vulgaris A21559; assay: In vitro MIC, tube dilution; format: cell-based; settings: Proteus vulgaris, A21559, tube dilution, Nutrient Broth, overnight incubation at 37° C.
[27] = tested on: S. aureus A-9537; assay: In vitro MIC, tube dilution; format: cell-based; settings: Staphylococcus aureus, overnight incubation at 37° C.
[28] = tested on: various Pseudomonas species; settings: prior art description; cited from earlier work

For `C[C@@H](O)[C@H]1C(=O)N2C(C(=O)[O-])=C(SCC[N+]3(C)CCCC3)C[C@H]12` [Example 1, 3-[2-(N-methylpyrrolidinium)ethylthio]-6α-[1-(R)-hydroxyethyl]-7-oxo-1-azabicyclo [3.2.0]hept-2-ene-2-carboxylate], the ED50 [1] was 3 mg/kg, the MIC [2] was 0.03 mg/L (≈ 0.0881 µM) and the MIC [3] was 0.25 mg/L (≈ 0.734 µM). For the same molecule, the MIC [4] was 0.03 mg/L (≈ 0.0881 µM), the MIC [5] was 4 mg/L (≈ 11.7 µM) and the MIC [6] was 0.002 mg/L (≈ 0.00587 µM). For the same molecule, the MIC [7] was 0.25 mg/L (≈ 0.734 µM), the MIC [8] was 0.5 mg/L (≈ 1.47 µM) and the MIC [9] was 0.13 mg/L (≈ 0.382 µM). For the same molecule, the MIC [10] was 0.13 mg/L (≈ 0.382 µM), the MIC [11] was 0.25 mg/L (≈ 0.734 µM) and the MIC [12] was 0.13 mg/L (≈ 0.382 µM). For the same molecule, the NOAEL [13] was > 10 mg/kg, the LD50 ([13]; intracranial administration to mice, average of 25 mice/compound) was > 10 mg/kg and the MIC [14] was 0.13 mg/L (≈ 0.382 µM). The ED50 [15] was > 10 mg/kg, the dose excreted at 3 h ([16]; 0-3 hours after administration, read-out: Percentage of Dose Recovered in urine, 0-3 hours) was 18.8% and the dose excreted at 24 h ([16]; 0-24 hours after administration, read-out: Percentage of Dose Recovered in urine, 0-24 hours) was 19.5 ± 3.2%. The dose excreted at 6 h ([16]; 3-6 hours after administration, read-out: Percentage of Dose Recovered in urine, 3-6 hours) was 0.6%, the dose excreted at 24 h ([16]; 6-24 hours after administration, read-out: Percentage of Dose Recovered in urine, 6-24 hours) was 0.1% and the MIC [17] was 0.13 mg/L (≈ 0.382 µM). It also gave an AUC ([18]; 20 mg/kg, Example 1 table, read-out: AUC (area under the blood concentration-time curve)) of 5.4 µg·h/mL, a half-life ([18]; 20 mg/kg, Example 1 table, read-out: t1/2 (half-life in blood)) of 11 min and a concentration at 10 min ([18]; 10 min, read-out: Blood Level 10 minutes after administration) of 13.7 µg/mL. The concentration at 20 min ([18]; 20 min, read-out: Blood Level 20 minutes after administration) was 10.2 µg/mL, the concentration at 0.5 h ([18]; 30 min, read-out: Blood Level 30 minutes after administration) was 5.7 µg/mL and the concentration at 0.75 h ([18]; 45 min, read-out: Blood Level 45 minutes after administration) was 2.1 µg/mL. For the same molecule, the concentration at 1 h ([18]; 60 min, read-out: Blood Level 60 minutes after administration) was < 0.6 µg/mL, the concentration at […] ([18]; 90 min, read-out: Blood Level 90 minutes after administration) was < 0.6 µg/mL and the MIC [19] was 0.002 mg/L (≈ 0.00587 µM). It also gave an MIC [20] of 0.016 mg/L (≈ 0.047 µM), an MIC [21] of 1 mg/L (≈ 2.94 µM) and an MIC [22] of 0.06 mg/L (≈ 0.176 µM). It also gave an MIC [23] of 0.25 mg/L (≈ 0.734 µM), an MIC [24] of 0.13 mg/L (≈ 0.382 µM) and an MIC [25] of 0.06 mg/L (≈ 0.176 µM). It also gave an MIC [26] of 0.03 mg/L (≈ 0.0881 µM), an MIC ([27]; A9537, + 50% serum, tube dilution, read-out: MIC S. aureus + 50% serum A-9537) of 0.016 mg/L and an MIC ([27]; A9537, tube dilution, Nutrient Broth, read-out: MIC S. aureus A-9537) of 0.008 mg/L (≈ 0.0235 µM).

In the case of `C[C@@H](O)[C@H]1C(=O)N2C(C(=O)O)=C(SCCN)C[C@H]12` [Thienamycin, thienamycin], the “activity against various Pseudomonas species” value [28] is given as “notable activity”.
